In PMC7047268 (ACS Central Science, 2020):

Tests used:
5-HT2C [1] = target: T1, 5-HT2C (Homo sapiens, UniProt P28335); experiment: cell-based; type: cell-based
T1 sequence (P28335 33-458): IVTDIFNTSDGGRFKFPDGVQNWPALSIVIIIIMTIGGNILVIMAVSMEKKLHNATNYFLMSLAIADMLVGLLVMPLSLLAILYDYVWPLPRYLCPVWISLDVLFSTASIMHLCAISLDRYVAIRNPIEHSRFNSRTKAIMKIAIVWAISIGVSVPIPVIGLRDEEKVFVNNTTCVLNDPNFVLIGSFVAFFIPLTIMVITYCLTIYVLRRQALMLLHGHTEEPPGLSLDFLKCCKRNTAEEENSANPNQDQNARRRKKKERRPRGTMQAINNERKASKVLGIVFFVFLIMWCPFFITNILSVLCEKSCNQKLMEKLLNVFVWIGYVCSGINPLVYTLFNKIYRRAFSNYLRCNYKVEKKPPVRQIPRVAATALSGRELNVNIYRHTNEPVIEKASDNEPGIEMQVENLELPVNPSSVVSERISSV

5-HT2B = 5-HT2B (Homo sapiens, UniProt P41595); experiment: cell-based; type: cell-based; settings: for Gq agonism for 5-HT2B: agonist mode
5-HT2B, sequence (P41595 whole entry): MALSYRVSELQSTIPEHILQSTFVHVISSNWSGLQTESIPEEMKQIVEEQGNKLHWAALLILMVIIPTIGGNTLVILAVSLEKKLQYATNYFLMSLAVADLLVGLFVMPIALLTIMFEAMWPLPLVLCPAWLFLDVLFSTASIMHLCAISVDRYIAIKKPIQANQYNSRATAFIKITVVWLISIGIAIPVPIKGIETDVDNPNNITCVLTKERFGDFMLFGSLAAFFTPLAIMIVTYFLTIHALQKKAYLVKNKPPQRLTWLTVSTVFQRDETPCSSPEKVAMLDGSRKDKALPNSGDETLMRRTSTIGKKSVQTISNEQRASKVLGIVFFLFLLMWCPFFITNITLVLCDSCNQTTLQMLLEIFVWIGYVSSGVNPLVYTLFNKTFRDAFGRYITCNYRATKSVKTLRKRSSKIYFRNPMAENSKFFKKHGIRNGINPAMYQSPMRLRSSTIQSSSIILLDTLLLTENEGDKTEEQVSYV

5-HT2A = 5-HT2A (Homo sapiens, UniProt P28223); type: cell-based; settings: for Gq agonism for 5-HT2A: agonist mode
5-HT2A, sequence (P28223 whole entry): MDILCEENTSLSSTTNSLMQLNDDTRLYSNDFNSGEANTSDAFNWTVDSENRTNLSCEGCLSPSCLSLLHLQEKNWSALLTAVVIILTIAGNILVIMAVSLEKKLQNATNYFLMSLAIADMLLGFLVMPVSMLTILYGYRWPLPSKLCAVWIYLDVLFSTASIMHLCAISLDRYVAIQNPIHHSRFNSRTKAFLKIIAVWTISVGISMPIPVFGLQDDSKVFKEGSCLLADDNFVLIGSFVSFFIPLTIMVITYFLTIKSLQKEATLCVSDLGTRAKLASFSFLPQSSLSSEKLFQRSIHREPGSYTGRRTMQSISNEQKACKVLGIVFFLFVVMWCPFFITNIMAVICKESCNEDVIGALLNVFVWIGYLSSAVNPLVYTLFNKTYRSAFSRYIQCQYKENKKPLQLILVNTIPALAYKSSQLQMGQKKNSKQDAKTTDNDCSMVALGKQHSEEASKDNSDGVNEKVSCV

[2] = tested on: wild-type or mutant 5-HT2C; experiment: Radiolabeled ligand binding assay, 3H-mesulergine, transfected CHO cells; parameters: species or system human
[3] = target: T2, human 5-HT2C and its mutants (Homo sapiens, UniProt P28335); experiment: Tango β-arrestin2 recruitment assay, HTLA cells; type: cell-based; settings: for β-arrestin2 recruitment agonist activity (Tango): wild-type 5-HT2C, agonist mode
T2 sequence (P28335 33-458): T1 sequence (P28335 33-458)

5-HT2C [4] = target: T1, 5-HT2C; type: cell-based
[5] = tested on: overnight fasting male C57BL/6J mice; experiment: Acute feeding suppression; type: in vivo; settings: intraperitoneal; 1857 30 mg/kg, lorcaserin 10 mg/kg; vs vehicle
[6] = tested on: diet-induced obesity (DIO) mice; experiment: DIO mice feeding suppression; type: in vivo
[7] = 30 mg/kg i.p. daily for 10 days
[8] = 30 mg/kg i.p. daily for 10 days, vs vehicle
[9] = 30 mg/kg i.p. daily, from day 5 until end of study

For `COc1cc2c3c(c1OC)-c1ccccc1CC3NCC2` (centres unmarked) [Compound 15781, nornuciferine], the EC50 (5-HT2C [1]) was 653 nM, the Emax (5-HT2C [1]; HEK-293T, read-out: Emax relative to 5-HT) was 65.6% and the IC50 (5-HT2B) was greater than 10 µM. The “Gq agonism for 5-HT2B” value (5-HT2B) was “none of them exhibited measurable Gq agonism” and the “Gq agonism for 5-HT2A” value (5-HT2A) was “none of them exhibited measurable Gq agonism”.
For (R)-asimilobine [Compound 1857], the “in vitro potency for 5-HT2C activation lower than that of lorcaserin” value (5-HT2C [1]) was 2 orders of magnitude, the “Emax relative to 5-HT” value (5-HT2C [1]; Gq-mediated calcium signaling at 5-HT2C) was 86.1% and the “Gq agonism for 5-HT2B” value (5-HT2B) was “none of them exhibited measurable Gq agonism”. For the same molecule, the “Gq agonism for 5-HT2A” value (5-HT2A) was “none of them exhibited measurable Gq agonism”, the enhancement of binding [2] was 6 fold and the “antagonism of β-arrestin signaling (Tango)” value ([3]; against agonist ergotamine) was “acts as an antagonist”. For the same molecule, the “β-arrestin2 recruitment agonist activity (Tango)” value [3] was “no β-arrestin recruitment activity”, the “β-arrestin2 recruitment agonist activity (BRET)” value (5-HT2C [4]) was “does not possess agonist activity” and the “antagonism of β-arrestin2 association (BRET)” value (5-HT2C [4]; agonist lorcaserin (4 μM)) was “acts as an antagonist for β-arrestin2 association”. The “acute food intake suppression” value [5] was “reduced food intake from 30 min to 4 h postinjection”, the “blood glucose relative to vehicle” value [6, 7] was −20.9% and the “liver TC and TG levels” value [6, 7] was “decreased liver TC and TG levels”. The “serum total cholesterol (TC) relative to vehicle” value [6, 7] was −7.9%, the “serum total triglyceride (TG) relative to vehicle” value [6, 7] was “unchanged” and the “total organ weight of epididymal white adipose tissue (WAT)” value [6, 8] was −29.3%. The “total organ weight of inguinal WAT” value [6, 8] was −46.4%, the “body weight in DIO mice” value [6, 9] was “weight loss” and the “food intake in DIO mice” value [6, 9] was “Significant reduction of food intake”.
In the case of `COc1cc2c3c(c1OC)-c1ccccc1C[C@H]3N(C)CC2` [Compound 15856, Nuciferine], the “antagonism of Gq-mediated activity at 5-HT2C” value (5-HT2C [1]) is reported as “sub-micromolar potency”, the “antagonism of Gq-mediated activity at 5-HT2B” value (5-HT2B) is reported as “sub-micromolar potency” and the “antagonism of Gq-mediated activity at 5-HT2A” value (5-HT2A) is reported as “sub-micromolar potency”.
`C[C@H]1CNCCc2ccc(Cl)cc21` [Lorcaserin, lorcaserin, reference compound] was tested, and the “agonist efficacy class in G protein pathway at 5-HT2C” value (5-HT2C [1]) was “full agonist”, the “β-arrestin2 recruitment agonist activity (Tango)” value [3] was “full agonist” and the “acute food intake suppression” value [5] was “suppressed food intake up to 2 h postinjection”.
